Experimental data published in PMC5614982, “Impact of Gastric H^+/K^+-ATPase rs2733743 on the Intragastric pH-Values of Dexlansoprazole Injection in Chinese Subjects” (Frontiers in Pharmacology, 2017).
Marks after values point to notes of the source that are not given here.

Test system: intragastric pH
Assay: 24-h intragastric pH monitoring after single intravenous dexlansoprazole in healthy Chinese subjects
Format: in vivo, human
Settings: for AUCτ 1−τ 2pH−t: second AUC line
Method: Dexlansoprazole injection (30 mg per vial) used in the PK and PD study was manufactured by Nanjing Yoko Pharma Co., Ltd. (Nanjing, China). Subjects received an intravenous infusion of 20 or 30 mg dexlansoprazole injection in sterile saline solution (100 mL/h, 60 min). The study drug was administrated with an infusing pump (SA213, Lifepum, Beijing, China) and given through an intravenous catheter in the antecubital vein opposite to the one from which blood samples were taken.
An ambulatory pH recorder (Orion II, MMS, USA) with a disposable pH catheter (VersaFlex, MMS, USA) was used to monitor intragastric pH. The electrode was placed in water for at least 10 min and then calibrated using standard buffer solutions (pH 1.07 and 7.01) before intubation. Both calibration and intubation processes were conducted under the guidance of MMS Virtual Instructor Program. The catheter, trans nasally placed 10 cm under the lower esophageal sphincter, was identified by a sharp decrease in pH (Wang et al., [2010], [2011]). Subjects were intubated on baseline and the day of dosing at about 7:30 a.m., and the intragastric pH data were recorded continuously for 24 h from 8:00 a.m. Intragastric pH was sampled every second, and the data were stored in a MMS Database program (MMS, USA). The PD parameters including Median (pH), Mean (pH), TpH≥3 (%), TpH≥4 (%), TpH≥6 (%), TpH≥6, and AUC^pH−t were analyzed by the MMS Database program.
Median (pH) and mean (pH) were well-investigated in most studies, and the percentage time of pH ≥ 4 (or pH ≥ 4 holding time ratio) was the benchmark for predicting clinical efficacy of PPIs in treating acid-related diseases (Metz et al., [2009]). Novel parameter TpH≥6 (time to first gastric pH ≥ 6, min) and AUCτ 1-τ 2pH-t (area under pH-time curve from τ1 to τ2, pH·s) were defined to evaluate the velocity and extent of pharmacodynamics with more accuracy. All parameters were calculated and compared according to time periods of 0–24, 0–4, 4–10, 10–14, and 14–24 h post dosing.
The parameter AUCτ 1-τ 2pH-t was calculated as follows:
Where t represented the time duration measured by seconds, AUCτ 1-τ 210-t was the area between the pH line = 10 and the pH-time curve, which was generated by the MMS software.
Baseline-adjusted PD parameters were calculated as follows: for example, ΔAUC^pH−t = AUC^pH−t − AUC^pH−tbaseline, ΔMean (pH) = Mean (pH) − Mean (pH)^baseline, and ΔMedian (pH) = Median (pH) − Median (pH)^baseline.

[1] = 30 mg iv, H+/K+-ATPase Het (n = 10), 0–4 h
[2] = 30 mg iv, H+/K+-ATPase Het (n = 10), 0–24 h
[3] = 30 mg iv, H+/K+-ATPase Het (n = 10), 14–24 h
[4] = 30 mg iv, H+/K+-ATPase Hom (n = 10), 0–4 h
[5] = 30 mg iv, H+/K+-ATPase Hom (n = 10), 0–24 h
[6] = 30 mg iv, H+/K+-ATPase Hom (n = 10), 14–24 h
[7] = 30 mg iv, H+/K+-ATPase WT (n = 8), 0–4 h
[8] = 30 mg iv, H+/K+-ATPase WT (n = 8), 0–24 h
[9] = 30 mg iv, H+/K+-ATPase WT (n = 8), 14–24 h

Compound: Cc1c(OCC(F)(F)F)ccnc1C[S@@+]([O-])c1nc2ccccc2[nH]1 [dexlansoprazole]
- ΔMedian (pH) [1]: 3.3 ± 2.0^c pH
- ΔTpH≥3(%) [1]: 52.6 ± 22.2%
- ΔTpH≥4 (%) [1]: 51.0 ± 20.6%
- ΔTpH≥6(%) [1]: 46.0 ± 33.2%
- Mean (pH) [2]: 5.9 ± 1.5 pH
- Median (pH) [2]: 6.0 ± 1.9 pH
- TpH≥3(%) [2]: 81.0 ± 20.9%
- TpH≥4(%) [2]: 74.9 ± 25.7%
- TpH≥6(%) [2]: 59.2 ± 25.9%
- ΔMean (pH) [2]: 3.0 ± 1.0^c pH
- ΔMedian (pH) [2]: 4.0 ± 1.6 pH
- ΔTpH≥3(%) [2]: 51.8 ± 14.2^c %
- ΔTpH≥4 (%) [2]: 54.9 ± 19.1^c %
- ΔTpH≥6(%) [2]: 47.2 ± 17.0^c %
- Mean (pH) [3]: 5.1 ± 1.9 pH
- Median (pH) [3]: 4.9 ± 2.3 pH
- TpH≥3(%) [3]: 72.0 ± 33.7%
- TpH≥4(%) [3]: 63.2 ± 38.0%
- TpH≥6(%) [3]: 41.0 ± 26.2%
- ΔMean (pH) [3]: 1.9 ± 0.9^c pH
- ΔMedian (pH) [3]: 2.1 ± 1.9^c pH
- ΔTpH≥3(%) [3]: 44.1 ± 21.3^c %
- ΔTpH≥4 (%) [3]: 37.7 ± 20.5^c %
- ΔTpH≥6(%) [3]: 17.4 ± 11.2^c %
- Mean (pH) [4]: 6.2 ± 0.8 pH
- Median (pH) [4]: 7.5 ± 0.6 pH
- TpH≥3(%) [4]: 78.0 ± 7.4%
- TpH≥4(%) [4]: 73.1 ± 12.6%
- TpH≥6(%) [4]: 70.3 ± 14.7%
- ΔMean (pH) [4]: 4.2 ± 0.3^a pH
- ΔMedian (pH) [4]: 5.8 ± 0.3^a^,^b pH
- ΔTpH≥3(%) [4]: 68.4 ± 8.6%
- ΔTpH≥4 (%) [4]: 67.5 ± 8.7%
- ΔTpH≥6(%) [4]: 67.9 ± 12.4%
- Mean (pH) [5]: 7.0 ± 0.6 pH
- Median (pH) [5]: 7.5 ± 0.6 pH
- TpH≥3(%) [5]: 95.7 ± 1.3%
- TpH≥4(%) [5]: 91.7 ± 4.9%
- TpH≥6(%) [5]: 80.2 ± 7.5%
- ΔMean (pH) [5]: 4.5 ± 0.7^a^,^b pH
- ΔMedian (pH) [5]: 5.5 ± 0.5^a pH
- ΔTpH≥3(%) [5]: 75.4 ± 7.6^a^,^b %
- ΔTpH≥4 (%) [5]: 79.9 ± 6.6^b %
- ΔTpH≥6(%) [5]: 75.3 ± 9.3^a^,^b %
- Mean (pH) [6]: 6.6 ± 0.8 pH
- Median (pH) [6]: 6.7 ± 1.1 pH
- TpH≥3(%) [6]: 98.5 ± 1.8%
- TpH≥4(%) [6]: 91.0 ± 10.4%
- TpH≥6(%) [6]: 66.9 ± 17.6%
- ΔMean (pH) [6]: 4.0 ± 1.1^b pH
- ΔMedian (pH) [6]: 4.7 ± 1.0^b pH
- ΔTpH≥3(%) [6]: 84.0 ± 9.1^a^,^b %
- ΔTpH≥4 (%) [6]: 80.9 ± 11.2^a^,^b %
- ΔTpH≥6(%) [6]: 59.2 ± 21.4^a^,^b %
- Mean (pH) [7]: 5.1 ± 1.4 pH
- Median (pH) [7]: 5.6 ± 2.0 pH
- TpH≥3(%) [7]: 69.5 ± 24.9%
- TpH≥4(%) [7]: 63.3 ± 26.8%
- TpH≥6(%) [7]: 46.8 ± 27.3%
- ΔMean (pH) [7]: 2.9 ± 1.0^c pH
- ΔMedian (pH) [7]: 3.5 ± 1.7^c pH
- ΔTpH≥3(%) [7]: 54.0 ± 28.3%
- ΔTpH≥4 (%) [7]: 53.6 ± 23.3%
- ΔTpH≥6(%) [7]: 42.6 ± 23.6%
- Mean (pH) [8]: 5.7 ± 0.9 pH
- Median (pH) [8]: 6.0 ± 1.1 pH
- TpH≥3(%) [8]: 81.1 ± 14.2%
- TpH≥4(%) [8]: 75.6 ± 17.1%
- TpH≥6(%) [8]: 57.1 ± 18.8%
- ΔMean (pH) [8]: 3.0 ± 1.0^c pH
- ΔMedian (pH) [8]: 3.7 ± 1.0^c pH
- ΔTpH≥3(%) [8]: 52.6 ± 21.0^c %
- ΔTpH≥4 (%) [8]: 57.3 ± 22.3%
- ΔTpH≥6(%) [8]: 51.2 ± 17.1^c %
- Mean (pH) [9]: 5.1 ± 1.3 pH
- Median (pH) [9]: 4.7 ± 1.7 pH
- TpH≥3(%) [9]: 70.7 ± 27.8%
- TpH≥4(%) [9]: 62.5 ± 31.5%
- TpH≥6(%) [9]: 43.7 ± 25.6%
- ΔMean (pH) [9]: 2.6 ± 1.3 pH
- ΔMedian (pH) [9]: 2.8 ± 1.7 pH
- ΔTpH≥3(%) [9]: 56.6 ± 27.3^c %
- ΔTpH≥4 (%) [9]: 50.7 ± 30.9^c %
- ΔTpH≥6(%) [9]: 33.3 ± 25.5^c %
- AUCτ 1−τ 2pH−t (20 mg iv, 0–4 h): 501 ± 268 pH·h
- AUCτ 1−τ 2pH−t (20 mg iv, 10–14 h): 784 ± 346 pH·h
- AUCτ 1−τ 2pH−t (20 mg iv, 14–24 h): 942 ± 632 pH·h
- AUCτ 1−τ 2pH−t (30 mg iv, 0–4 h): 793 ± 268 pH·h
- AUCτ 1−τ 2pH−t (30 mg iv, CYP2C19 EM (n = 11), 0–4 h): 762 ± 250 pH·h
- AUCτ 1−τ 2pH−t (30 mg iv, CYP2C19 EMs, H+/K+-ATPase Het (n = 8), 0–4 h): 531 ± 194^c pH·h
- AUCτ 1−τ 2pH−t (30 mg iv, CYP2C19 EMs, H+/K+-ATPase Het (n = 8), 14–24 h): 755 ± 198^c pH·h
- AUCτ 1−τ 2pH−t (30 mg iv, CYP2C19 EMs, H+/K+-ATPase WT (n = 6), 0–4 h): 817 ± 157 pH·h
- AUCτ 1−τ 2pH−t (30 mg iv, CYP2C19 EMs, H+/K+-ATPase WT (n = 6), 14–24 h): 968 ± 553^c pH·h
- AUCτ 1−τ 2pH−t (30 mg iv, CYP2C19 IM (n = 10), 0–4 h): 789 ± 405 pH·h
- AUCτ 1−τ 2pH−t (30 mg iv, CYP2C19 PM (n = 7), 0–4 h): 837 ± 235 pH·h
- AUCτ 1−τ 2pH−t [1]: 727 ± 297 pH·h
- AUCτ 1−τ 2pH−t [7]: 681 ± 248^c pH·h
